The target of test [1] is recombinant human EGFR L858R/C797S double mutant protein (Homo sapiens (Human), UniProt P00533, C797S/L858R). Kind of test: Biological Activity Assay B: biochemical assay against EGFR L858R/C797S protein (EGFR LR/CS). On the procedure: In Row A of a 384-well polypropylene plate, was added 48 μL of DMSO. In wells A1 and A24, were added 12 μL of DMSO. […] To a well in Row A were added 12 μL of each 10 mM test compound stock (100% DMSO). […] The final intermediate dilution plate contained 4×16-point compound serial dilutions in assay buffer. The DMSO concentration was 10%. The intermediate compound dilution plate was transferred to the Bravo and the “5 uL dispense into ARP.pro” protocol was run. To the black low volume assay ready plates, were added 5 μL of 40 uM Phosphosens peptide sensor/4 mM ATP working solution to each well. […] To column 24, was added 10 μL of assay buffer. The final DMSO concentration was 2.5%. […] The plates were sealed with the TopSeal-A Plus plate seals. […] Set for 90 cycles with 120 second interval. […] The slope of each curve was constructed using Dotmatics in each well, and each IC50s was calculated using a 4-parameter fit model.

For test [2], the target named is recombinant human EGFR exon 19 deletion/C797S double mutant protein (Homo sapiens (Human), UniProt P00533, C797S/DEL746-750). The test can be described thus: Biological Activity Assay C: biochemical assay against EGFR exon 19 deletion/C797S protein (EGFR d19/CS). The gist of the method:
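IC50 values were fitted with a 4-parameter model to reaction slopes taken from 90 kinetic reads spaced 120 s apart. The Phosphosens sensor/ATP working solution was 40 uM/4 mM, and compound was dosed as 16-point dilutions at 2.5% final DMSO.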

The subject of a further test is BaF3_EGFR LR/CS cells. The test can be described thus: Biological Activity Assay D: BaF3 cell proliferation assay, EGFR L858R/C797S mutant (BaF3 LR/CS). The test is classed as cell-based. The note with it: Ba/F3 EGFR, read-out: BaF3 LR/CS IC50.
The subject of another test is Ba/F3_EGFR WT cells. The test can be described thus: Biological Activity Assay D: BaF3 cell proliferation assay, EGFR wild-type (BaF3 WT). The conditions noted are these: Ba/F3 EGFR, read-out: BaF3 WT IC50. The test is classed as cell-based.
Another test has as its system BaF3_EGFR d19/CS cells. The test can be described thus: Biological Activity Assay D: BaF3 cell proliferation assay, EGFR exon 19 deletion/C797S (BaF3 d19/CS). The note with it: Ba/F3 EGFR, read-out: BaF3 d19/CS IC50. The test is classed as cell-based.
Where [3] appears, read: BaF3_EGFR LR/CS cells, ~72 hours, CellTiter-Glo.
The mark [4] stands for this setting: Ba/F3_EGFR WT cells, ~72 hours, CellTiter-Glo.
Setting [5] is: BaF3_EGFR d19/CS cells, ~72 hours, CellTiter-Glo.

Drawing on US20250034159A1, “INHIBITORS OF EPIDERMAL GROWTH FACTOR RECEPTOR” (ORIC Pharmaceuticals, Inc., priority 2021, published 2025), this text covers IC50 for 19 molecules.

pIC50: −log10 of the molar value. Where two headings read alike, the source gives them in different places.

Sequence of recombinant human EGFR L858R/C797S double mutant protein (P00533 25-1210 C797S/L858R): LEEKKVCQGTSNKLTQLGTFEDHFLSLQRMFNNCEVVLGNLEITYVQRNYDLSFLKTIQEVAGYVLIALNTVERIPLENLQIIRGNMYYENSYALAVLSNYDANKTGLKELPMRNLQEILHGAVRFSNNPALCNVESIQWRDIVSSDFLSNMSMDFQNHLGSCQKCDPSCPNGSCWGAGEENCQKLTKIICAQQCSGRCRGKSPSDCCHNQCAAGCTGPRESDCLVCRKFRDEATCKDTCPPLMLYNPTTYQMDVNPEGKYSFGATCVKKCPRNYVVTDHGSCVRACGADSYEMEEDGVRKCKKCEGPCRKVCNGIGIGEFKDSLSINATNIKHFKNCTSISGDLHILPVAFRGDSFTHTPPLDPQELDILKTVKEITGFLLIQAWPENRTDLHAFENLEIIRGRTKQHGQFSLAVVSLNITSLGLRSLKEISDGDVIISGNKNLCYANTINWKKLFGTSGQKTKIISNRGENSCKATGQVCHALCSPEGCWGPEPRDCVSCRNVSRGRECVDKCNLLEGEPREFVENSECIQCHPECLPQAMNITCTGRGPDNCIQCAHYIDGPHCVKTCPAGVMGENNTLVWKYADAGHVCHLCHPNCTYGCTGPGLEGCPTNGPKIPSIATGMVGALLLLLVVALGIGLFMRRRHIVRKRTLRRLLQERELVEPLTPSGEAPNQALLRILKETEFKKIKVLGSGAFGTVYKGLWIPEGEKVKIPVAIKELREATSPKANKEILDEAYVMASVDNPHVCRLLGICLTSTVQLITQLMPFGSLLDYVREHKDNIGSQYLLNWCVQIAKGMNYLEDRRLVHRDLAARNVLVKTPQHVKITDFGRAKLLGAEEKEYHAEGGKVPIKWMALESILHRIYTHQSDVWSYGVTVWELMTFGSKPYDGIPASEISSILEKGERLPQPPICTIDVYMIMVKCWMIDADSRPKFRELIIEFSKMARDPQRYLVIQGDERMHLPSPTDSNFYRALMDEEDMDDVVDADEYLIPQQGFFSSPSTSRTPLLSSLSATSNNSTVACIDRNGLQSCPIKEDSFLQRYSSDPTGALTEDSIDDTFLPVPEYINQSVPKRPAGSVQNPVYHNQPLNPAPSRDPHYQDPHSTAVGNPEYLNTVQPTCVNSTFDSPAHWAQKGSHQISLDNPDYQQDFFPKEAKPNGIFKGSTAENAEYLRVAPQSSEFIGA
Sequence of recombinant human EGFR exon 19 deletion/C797S double mutant protein (P00533 other isoform, or with tags, fused parts or gaps C797S/del 1-668/del 746-750 limits assumed): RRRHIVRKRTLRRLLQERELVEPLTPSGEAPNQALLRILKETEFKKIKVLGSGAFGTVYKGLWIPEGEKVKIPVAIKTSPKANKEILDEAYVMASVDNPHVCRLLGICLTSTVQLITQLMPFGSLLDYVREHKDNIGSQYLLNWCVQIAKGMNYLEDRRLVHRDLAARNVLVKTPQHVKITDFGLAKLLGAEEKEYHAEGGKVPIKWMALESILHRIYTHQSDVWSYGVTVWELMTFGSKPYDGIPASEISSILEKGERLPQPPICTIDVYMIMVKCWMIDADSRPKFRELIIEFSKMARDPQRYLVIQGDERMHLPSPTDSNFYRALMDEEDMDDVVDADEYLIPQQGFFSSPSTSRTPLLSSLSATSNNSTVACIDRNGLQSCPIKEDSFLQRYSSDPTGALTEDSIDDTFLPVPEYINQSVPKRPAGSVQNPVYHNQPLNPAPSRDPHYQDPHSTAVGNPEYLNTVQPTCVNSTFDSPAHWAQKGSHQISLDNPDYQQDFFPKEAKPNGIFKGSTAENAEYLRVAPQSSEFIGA

`O[C@H]1C[C@@H](Cn2cc(-c3ncnc4oc(-c5ccccc5)cc34)c(-c3ccc(F)cc3)n2)C1` [Example 42, (1s, 3s)-3-{[3-(4-Fluorophenyl)-4-(6-phenylfuro[2,3-d]pyrimidin-4-yl)-1H-pyrazol-1-yl]methyl}cyclobutan-1-ol]: the pIC50 in test [1] was 9.28; in test [2], 9.47; with BaF3_EGFR LR/CS cells (setting [3]), 7.24; with Ba/F3_EGFR WT cells (setting [4]), 5.68; with BaF3_EGFR d19/CS cells (setting [5]), 7.43.
As to `CC(O)CCn1cc(-c2ncnc3oc(-c4ccccc4)cc23)c(-c2ccc(F)cc2)n1` (centres unmarked) [Example 62, 4-[3-(4-Fluorophenyl)-4-(6-phenylfuro[2,3-d]pyrimidin-4-yl)-1H-pyrazol-1-yl]butan-2-ol], the pIC50 in test [1] is 9.28; in test [2], 9.15; in the test on BaF3_EGFR LR/CS cells (setting [3]) it was 7.35; in the test on Ba/F3_EGFR WT cells (setting [4]) it was 5.94; with BaF3_EGFR d19/CS cells (setting [5]) it was 7.52.
As for `N#CCn1cc(-c2ncnc3oc(-c4ccccc4)cc23)c(-c2ccc(F)cc2)n1` [Example 30], the pIC50 was 8.77 in test [1]; 8.73 in test [2]; 6.58 with BaF3_EGFR LR/CS cells (setting [3]); 5.35 with Ba/F3_EGFR WT cells (setting [4]); 6.50 in the test on BaF3_EGFR d19/CS cells (setting [5]).
`Fc1ccc(-c2nn([C@@H]3CCOC3)cc2-c2ncnc3oc(-c4ccccc4)cc23)cc1` (single isomer, unassigned) [Example 90]: the pIC50 was 9.29 in test [1]; 9.62 in test [2]; 7.44 with BaF3_EGFR LR/CS cells (setting [3]); 5.82 in the test with Ba/F3_EGFR WT cells (setting [4]); 7.19 with BaF3_EGFR d19/CS cells (setting [5]).
As for `O[C@H]1C[C@H](Cn2ncc(-c3ncnc4oc(-c5ccccc5)cc34)c2-c2ccc(F)cc2)C1` [Example 54, (1r,3r)-3-{[5-(4-fluorophenyl)-4-(6-phenylfuro[2,3-d]pyrimidin-4-yl)-1H-pyrazol-1-yl]methyl}cyclobutan-1-ol], the pIC50 is 7.80 in test [1]; 7.70 in test [2]; 6.00 in the test on BaF3_EGFR LR/CS cells (setting [3]); 5.05 in the test on Ba/F3_EGFR WT cells (setting [4]); 6.08 with BaF3_EGFR d19/CS cells (setting [5]).
On to `CN1CCN(c2ccc(-c3cc4c(-c5oc(CCCO)nc5-c5ccc(F)cc5)ccnc4[nH]3)cc2)CC1` [Example 29, 3-[4-(4-Fluorophenyl)-5-{2-[4-(4-methylpiperazin-1-yl)phenyl]-1H-pyrrolo[2,3-b]pyridin-4-yl}-1,3-oxazol-2-yl]propan-1-ol], for which the pIC50 in test [1] is 9.96; in test [2], 10.11; in the test on BaF3_EGFR LR/CS cells (setting [3]), 8.89; in the test on Ba/F3_EGFR WT cells (setting [4]) it was 7.05; in the test with BaF3_EGFR d19/CS cells (setting [5]), 8.91.
For the molecule `O=S1(=O)CC(Cn2ncc(-c3ncnc4oc(-c5ccccc5)cc34)c2-c2ccc(F)cc2)C1` [Example 112, 3-((5-(4-fluorophenyl)-4-(6-phenylfuro[2,3-d]pyrimidin-4-yl)-1H-pyrazol-1-yl)methyl)thietane 1,1-dioxide], the pIC50 in test [1] is 7.89; in test [2] it was 7.90; in the test with BaF3_EGFR LR/CS cells (setting [3]), 6.13; with Ba/F3_EGFR WT cells (setting [4]) it was 5.15; with BaF3_EGFR d19/CS cells (setting [5]) it was 5.94.
Taken in the same sequence, the figures for `CN1CCN(c2ccc(-c3cc4c(-c5cn(CCCO)nc5-c5ccc(F)cc5)ncnc4o3)cc2)CC1` [Example 33, 3-[3-(4-Fluorophenyl)-4-{6-[4-(4-methylpiperazin-1-yl)phenyl]furo[2,3-d]pyrimidin-4-yl}-1H-pyrazol-1-yl]propan-1-ol] were 9.67, 9.92, 8.94, 7.42 and 8.97.
With `CS(=O)(=O)N1CC(n2cc(-c3ncnc4oc(-c5ccccc5)cc34)c(-c3ccc(F)cc3)n2)C1` [Example 114, 4-{3-(4-fluorophenyl)-1-[1-(methanesulfonyl)azetidin-3-yl]-1H-pyrazol-4-yl}-6-phenylfuro[2,3-d]pyrimidine], the pIC50 in test [1] is 8.79; in test [2] it was 9.26; with BaF3_EGFR LR/CS cells (setting [3]), 6.88; in the test with Ba/F3_EGFR WT cells (setting [4]), 5.48; in the test on BaF3_EGFR d19/CS cells (setting [5]), 6.86.
Taken in the same sequence, the figures for `CS(=O)(=O)CCCn1cc(-c2ncnc3oc(-c4ccccc4)cc23)c(-c2ccc(F)cc2)n1` [Example 55, 4-{3-(4-Fluorophenyl)-1-[3-(methanesulfonyl)propyl]-1H-pyrazol-4-yl}-6-phenylfuro[2,3-d]pyrimidine] were 9.61, 9.54, 7.10, 5.89 and 7.67.
For `OCCCn1cc(-c2ncnc3oc(-c4ccccc4)cc23)c(-c2ccc(F)cc2)n1` [Example 11, 3-[3-(4-Fluorophenyl)-4-(6-phenylfuro[2,3-d]pyrimidin-4-yl)-1H-pyrazol-1-yl]propan-1-ol], the pIC50 in test [1] was 9.28; in test [2] it was 9.39; in the test with BaF3_EGFR LR/CS cells (setting [3]), 8.16; with Ba/F3_EGFR WT cells (setting [4]), 6.23; with BaF3_EGFR d19/CS cells (setting [5]), 8.24.
In the case of `CN(C)S(=O)(=O)n1cc(-c2ncnc3oc(-c4ccccc4)cc23)c(-c2ccc(F)cc2)n1` [Example 51, 3-(4-fluorophenyl)-N,N-dimethyl-4-(6-phenylfuro[2,3-d]pyrimidin-4-yl)-1H-pyrazole-1-sulfonamide], the pIC50 in test [1] is 7.77; in test [2], 7.56; in the test with BaF3_EGFR LR/CS cells (setting [3]), 6.11; with Ba/F3_EGFR WT cells (setting [4]) it was 4.97; in the test on BaF3_EGFR d19/CS cells (setting [5]) it was 6.01.
Consider `CS(=O)(=O)N1CCC(n2cc(-c3ncnc4oc(-c5ccccc5)cc34)c(-c3ccc(F)cc3)n2)C1` (racemic) [Example 89, 4-{3-(4-fluorophenyl)-1-[1-(methanesulfonyl)pyrrolidin-3-yl]-1H-pyrazol-4-yl}-6-phenylfuro[2,3-d]pyrimidine], for which the pIC50 in test [1] was 9.42; in test [2] it was 9.52; in the test on BaF3_EGFR LR/CS cells (setting [3]), 7.70; in the test with Ba/F3_EGFR WT cells (setting [4]), 6.43; in the test with BaF3_EGFR d19/CS cells (setting [5]), 7.69.
For the molecule `Fc1ccc(-c2nn(C3CCOCC3)cc2-c2ncnc3oc(-c4ccccc4)cc23)cc1` [Example 76, 4-[3-(4-Fluorophenyl)-1-(oxan-4-yl)-1H-pyrazol-4-yl]-6-phenylfuro[2,3-d]pyrimidine], the pIC50 is 9.03 in test [1]; 9.15 in test [2]; 7.34 with BaF3_EGFR LR/CS cells (setting [3]); 5.69 with Ba/F3_EGFR WT cells (setting [4]); 7.51 with BaF3_EGFR d19/CS cells (setting [5]).
Turning to `OCCn1cc(-c2ncnc3oc(-c4ccccc4)cc23)c(-c2ccc(F)cc2)n1` [Example 94, 2-[3-(4-Fluorophenyl)-4-(6-phenylfuro[2,3-d]pyrimidin-4-yl)-1H-pyrazol-1-yl]ethan-1-ol], the pIC50 was 9.77 in test [1]; 9.96 in test [2]; 7.65 with BaF3_EGFR LR/CS cells (72 h); 5.95 in the test on Ba/F3_EGFR WT cells (72 h); 7.56 in the test with BaF3_EGFR d19/CS cells (72 h).
Take `O=S1(=O)CCC(Cn2cc(-c3ncnc4oc(-c5ccccc5)cc34)c(-c3ccc(F)cc3)n2)CC1` [Example 105, 4-{[3-(4-fluorophenyl)-4-(6-phenylfuro[2,3-d]pyrimidin-4-yl)-1H-pyrazol-1-yl]methyl}-1λ6-thiane-1,1-dione]: the pIC50 in test [1] is 9.12; in test [2], 8.77; with BaF3_EGFR LR/CS cells (setting [3]), 6.87; in the test with Ba/F3_EGFR WT cells (setting [4]) it was 5.77; in the test with BaF3_EGFR d19/CS cells (setting [5]), 6.82.
For the molecule `CN1CCN(c2ccc(-c3nc4c(-c5cn(CCCO)nc5-c5ccc(F)cc5)ncnc4[nH]3)cc2)CC1` [Example 15, 3-[3-(4-Fluorophenyl)-4-{8-[4-(4-methylpiperazin-1-yl)phenyl]-9H-purin-6-yl}-1H-pyrazol-1-yl]propan-1-ol], the pIC50 in test [1] was 9.57; in test [2], 9.68; in the test on BaF3_EGFR LR/CS cells (setting [3]), 8.99; in the test on Ba/F3_EGFR WT cells (setting [4]), 7.19; in the test on BaF3_EGFR d19/CS cells (setting [5]), 9.02.
Taken in the same sequence, the figures for `CC(C)(C(N)=O)n1cc(-c2ncnc3oc(-c4ccccc4)cc23)c(-c2ccc(F)cc2)n1` [Example 77, 2-[3-(4-Fluorophenyl)-4-(6-phenylfuro[2,3-d]pyrimidin-4-yl)-1H-pyrazol-1-yl]-2-methylpropanamide] were 8.87, 8.79, 6.86, 5.29 and 7.14.
Take `N#CCn1cc(-c2ncnc3oc(-c4ccccc4)nc23)c(-c2ccc(F)cc2)n1` [Example 25, [3-(4-fluorophenyl)-4-(2-phenyl[1,3]oxazolo[5,4-d]pyrimidin-7-yl)-1H-pyrazol-1-yl]acetonitrile]: the pIC50 in test [1] was 7.89; in test [2], 8.11; in the test on BaF3_EGFR LR/CS cells (setting [3]), 6.14; in the test on Ba/F3_EGFR WT cells (setting [4]) it was 5.46; in the test with BaF3_EGFR d19/CS cells (setting [5]) it was 6.09.
